Data from US20120220560A1, “STEROID TETROL SOLID STATE FORMS” (priority 2010, published 2012).
pIC50: −log10 of the molar value.

Columns and labels:
[1] = system: 8 week old db/db diabetic mice; assay: Hyperinsulinemic-euglycemic clamp, glucose lowering in db/db diabetic mice; assay type: in vivo; settings: for glucose infusion rate compared to the vehicle control: db/db mice, po bid 13 days, qd day 14, clamp on day 14, insulin 10 mU/kg/min; for glucose uptake in white vastus muscle / augmenting muscle glucose uptake in the gastrocnemius muscle: 14C-2-deoxyglucose during clamp; for glucose uptake in white vastus muscle: non oxidative muscle group; for augmenting muscle glucose uptake in the gastrocnemius muscle: p<0.05
Procedure: Glucose lowering in 8 week old db/db diabetic mice: The hyperinsulinemic-euglycemic clamp protocol was conducted to measure insulin sensitivity in vivo. In this procedure, insulin was administered to raise the insulin concentration while glucose was infused to maintain euglycemia or a fixed, normal blood glucose level (about 180 mg/dL). […] The objective of this protocol was to investigate characterize the capacity of 17α-ethynylandrost-5-ene-3β,7β,17β-triol and androst-5-ene-3β,7β,16α,17β-tetrol to ameliorate systemic insulin resistance and improve whole body glucose disposal in the hyperinsulinemic-euglycemic clamp model. The degree of skeletal muscle and hepatic insulin sensitivity and tissue specific glucose uptake were also assessed. The animals were dosed daily by oral gavage for 14 days. On Day 10 of treatment catheters were implanted in the carotid artery and jugular vein. On the day of the clamp (day 14) the compound was administered at 7:30 am.
Body weight and glucose concentration were assessed on day 0, 7 and day 14 of treatment. On day 14 a euglycemic-hyperinsulinemic clamp was performed. Food was removed at 7:30 am and at 10:30 a primed continuous infusion of [3-^3H]-glucose (0.05 μCi/min) was administered. A baseline blood sample was taken at 12:50 (−10 min) and at 1:00 (0 min) a euglycemic-hyperinsulinemic clamp was initiated by administering 10 mU/kg/min of insulin. Glucose was infused at a variable rate to clamp the glucose concentration at about 180 mg/dl. A bolus of [^14C]-2deoxyglucose was given at the end of the study to assess tissue specific glucose uptake. Plasma ^14C 2-deoxyglucose was assessed at 122, 125, 130, 135, 145 min. The animals were then anesthetized with an intravenous infusion of sodium pentobarbital and selected tissues were removed, immediately frozen in liquid nitrogen and stored at −70° C. until analysis.
Analysis was conducted as follows. Plasma samples were deproteinized with Ba(OH)2 (0.3 N) and ZnSO4 (0.3 N), dried and radioactivity was assessed on scintillation counter (Packard TRICARB 2900 TR, Meriden, Conn.). Frozen tissue samples were homogenized in 0.5% perchloric acid, centrifuged and neutralized. One supernatant was directly counted to determine radioactivity from both [14C] DG and DGP. A second aliquot was treated with Ba(OH)2 and ZnSO4 to remove ^14C DGP and any tracer incorporated into glycogen and then counted to determine radioactivity from free [^14C]DG(2). [^14C]DGP was calculated as the difference between the two aliquots. The accumulation of [^14C]DGP was normalized to tissue weight and tracer bolus. Rg, an index of tissue specific glucose uptake was calculated as previously described (E. W. Kraegen et al., Am. J. Physiol., 248: E353-E362 (1985)). Whole body glucose turnover was calculated as the ratio of the ^3H glucose infusion rate (dpm/kg/min) and arterial plasma glucose specific activity (dpm/mg). Endogenous glucose production was calculated as the difference between the whole body glucose turnover and the exogenous glucose infusion rate (R. N. Bergman et al., Endocr. Rev., 6:45-86, (1985)).

[2] = system: male Wistar rats, DNBS challenge; assay: DNBS-induced distal colitis, animal model for inflammatory bowel disease; assay type: in vivo; settings: sc once a day for 6 days, 0.2 or 2.0 mg/animal/day, 25-30% decrease considered significant
Procedure: The capacity of androst-5-ene-3β,7β,16α,17β-tetrol (3β-tetrol) to limit or inhibit inflammation or symptoms of inflammation is shown using an animal model for inflammatory bowel disease using the following protocol.
Groups of 3 male Wistar rats (180±20 grams) fasted for 24 hours before 2,4-dinitrobenzene sulfonic acid (DNBS) or saline challenge are used. Distal colitis is induced by intra-colonic instillation of 0.5 mL of an ethanolic solution of DNBS (30 mg in 0.5 mL of a 30% ethanol in saline solution) after which 2 mL of air was injected through the cannula to ensure that the solution remained in the colon. The volume used was 0.1 mL per injection of 2 and 20 mg/mL of compound such as androst-5-ene-3β,7β,17β-triol or 3β-tetrol in a liquid formulation, which was administered by subcutaneous injection once a day for 6 days (0.2 mg/animal/day or 2.0 mg/animal/day). The formulation contains […] of compound. Concentrations of 2 mg/mL and 20 mg/mL are obtained by […] with vehicle that lacked compound.
The first dose is given 30 minutes after DNBS challenge. […] The presence of diarrhea is recorded daily by examining the anal area. […] Before removal of the colon, signs of adhesion between the colon and other organs are recorded. […]

[3] = system: MG-63 cells; assay: Reversal of adverse effects of dexamethasone in MG-63 osteoblasts (incl. osteoprotegerin synthesis); assay type: cell-based, human
Excerpt: (§1) The capacity of 5-androstene-3β,7β,17β-triol, androst-5-ene-3β,7β,16α,17β-tetrol (3β-tetrol) and other compounds to reverse adverse effects of glucocorticoids in bone growth was shown in the human MG-63 osteosarcoma cell line. MG-63 cells are osteoblasts, which are cells that mediate bone growth. This cell line has been used extensively to study bone biology and to characterize the biological activity of compounds for treatment of bone loss conditions (e.g., B. D. Boyan et al., J. Biol. Chem., 264(20):11879-11886 (1989); L. C. Hofbauer et al., Endocrinology, 140(10):4382-4389 (1999)). Adverse toxicities associated with elevated glucocorticoid levels include a […] in the production of IL-6 and IL-8 by osteoblasts, including the MG-63 cell line, and an increase in the expression of the 11β-hydroxysteroid dehydrogenase type 1 enzyme (11β-HSD). Increased 11β-hydroxysteroid dehydrogenase type 1 enzyme results in increased levels of endogenous glucocorticoid activity by converting endogenous cortisone to the active cortisol, which inhibits bone growth. The 11β-HSD enzyme is expressed in liver, adipose tissue, brain and bone tissues. Cortisol generated by 11β-HSD-1 contributes to osteoporosis, insulin resistance, type 2 diabetes, dyslipidemia, obesity, central nervous system disorders such as stroke, neuron death, depression and Parkinson Disease. […]

[4] = molecular target: T1, androgen receptor (Homo sapiens, UniProt P10275); assay: Interaction with androgen receptor; assay type: binding
T1 sequence (P10275 1-920): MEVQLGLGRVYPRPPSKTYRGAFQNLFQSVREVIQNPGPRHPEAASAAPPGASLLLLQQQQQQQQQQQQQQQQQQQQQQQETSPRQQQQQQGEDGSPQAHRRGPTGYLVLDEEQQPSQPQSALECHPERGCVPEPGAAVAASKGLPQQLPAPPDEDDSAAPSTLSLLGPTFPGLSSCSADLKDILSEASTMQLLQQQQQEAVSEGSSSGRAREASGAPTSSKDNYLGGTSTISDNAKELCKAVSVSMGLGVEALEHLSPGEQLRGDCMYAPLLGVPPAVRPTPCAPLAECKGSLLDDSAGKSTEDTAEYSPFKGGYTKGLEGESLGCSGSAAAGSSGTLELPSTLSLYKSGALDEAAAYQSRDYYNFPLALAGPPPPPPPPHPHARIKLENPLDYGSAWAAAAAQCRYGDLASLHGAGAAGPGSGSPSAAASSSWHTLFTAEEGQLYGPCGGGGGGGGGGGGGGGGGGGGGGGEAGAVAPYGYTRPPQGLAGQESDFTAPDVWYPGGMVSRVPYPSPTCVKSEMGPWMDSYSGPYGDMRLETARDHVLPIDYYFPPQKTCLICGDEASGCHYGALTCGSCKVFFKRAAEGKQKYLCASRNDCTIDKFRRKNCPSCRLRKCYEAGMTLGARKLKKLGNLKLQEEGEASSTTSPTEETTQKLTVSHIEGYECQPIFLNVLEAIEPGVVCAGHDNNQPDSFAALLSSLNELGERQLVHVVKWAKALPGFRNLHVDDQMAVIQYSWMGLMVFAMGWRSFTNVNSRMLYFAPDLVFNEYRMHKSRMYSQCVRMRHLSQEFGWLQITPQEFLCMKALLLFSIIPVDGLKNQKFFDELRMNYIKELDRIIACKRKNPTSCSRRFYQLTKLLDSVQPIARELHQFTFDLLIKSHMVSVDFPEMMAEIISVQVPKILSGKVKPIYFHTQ

[5] = molecular target: estrogen receptor-α (Homo sapiens, UniProt P03372); assay: Interaction with estrogen receptor-α; assay type: binding
Sequence of estrogen receptor-α (P03372 whole entry): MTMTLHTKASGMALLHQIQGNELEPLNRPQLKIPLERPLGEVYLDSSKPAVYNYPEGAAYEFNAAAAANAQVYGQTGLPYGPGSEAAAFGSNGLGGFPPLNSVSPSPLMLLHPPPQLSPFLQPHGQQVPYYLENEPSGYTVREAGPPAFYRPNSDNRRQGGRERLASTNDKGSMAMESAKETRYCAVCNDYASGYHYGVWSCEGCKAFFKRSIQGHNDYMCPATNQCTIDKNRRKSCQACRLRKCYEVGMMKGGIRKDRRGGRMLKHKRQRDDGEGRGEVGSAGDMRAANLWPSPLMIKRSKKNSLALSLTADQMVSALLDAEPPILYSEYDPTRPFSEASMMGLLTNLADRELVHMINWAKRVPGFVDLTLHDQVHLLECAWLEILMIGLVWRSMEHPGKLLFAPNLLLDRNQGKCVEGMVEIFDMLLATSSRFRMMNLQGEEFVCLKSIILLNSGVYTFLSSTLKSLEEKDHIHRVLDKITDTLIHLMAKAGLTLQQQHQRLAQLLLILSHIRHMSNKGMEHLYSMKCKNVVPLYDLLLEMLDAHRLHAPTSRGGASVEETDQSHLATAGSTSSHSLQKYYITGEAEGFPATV

[6] = molecular target: estrogen receptor-β (Homo sapiens, UniProt Q92731); assay: Interaction with estrogen receptor-β; assay type: binding
Sequence of estrogen receptor-β (Q92731 whole entry, species assumed): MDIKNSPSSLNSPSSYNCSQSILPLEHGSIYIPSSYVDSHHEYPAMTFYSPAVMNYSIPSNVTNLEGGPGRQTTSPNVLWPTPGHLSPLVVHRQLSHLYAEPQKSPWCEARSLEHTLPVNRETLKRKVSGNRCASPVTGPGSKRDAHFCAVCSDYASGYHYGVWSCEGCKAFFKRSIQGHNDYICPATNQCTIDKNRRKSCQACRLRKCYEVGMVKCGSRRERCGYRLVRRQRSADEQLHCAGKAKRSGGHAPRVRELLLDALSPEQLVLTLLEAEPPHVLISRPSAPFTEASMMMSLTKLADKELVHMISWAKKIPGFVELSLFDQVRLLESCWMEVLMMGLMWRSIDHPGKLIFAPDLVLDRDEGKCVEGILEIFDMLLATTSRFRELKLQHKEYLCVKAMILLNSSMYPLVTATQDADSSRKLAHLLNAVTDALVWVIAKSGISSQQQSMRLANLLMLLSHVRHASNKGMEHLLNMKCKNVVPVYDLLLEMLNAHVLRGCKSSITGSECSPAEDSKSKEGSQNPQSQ

[7] = system: IL-6 from MG-63 cells; assay: Inhibition of IL-6 from MG-63 cells; assay type: cell-based; settings: Homo sapiens, pilot studies
Excerpt: as §1

[8] = system: osteoprotegerin; assay: Osteoprotegerin levels in dexamethasone-treated mice; assay type: in vivo; settings: mice treated with vehicle and dexamethasone at 10 μg/day, daily for 23 days (positive control group)
Procedure: Osteoprotegerin levels in mice that are treated with vehicle and dexamethasone at 10 μg/day (positive control group) typically show 3.3 pMol/L osteoprotegerin, […]

SMILES | glucose infusion rate compared to the vehicle control [1] | glucose uptake in white vastus muscle [1] | augmenting muscle glucose uptake in the gastrocnemius muscle [1] | decrease in net colon-to-body weight ratio [2] | also measured
C#C[C@]1(O)CC[C@H]2[C@@H]3[C@@H](O)C=C4C[C@@H](O)CC[C@]4(C)[C@H]3CC[C@@]21C [17α-ethynylandrost-5-ene-3β,7β,17β-triol, reference compound] | increased |  |  |  | 
C[C@]12CC[C@H]3[C@@H]([C@@H](O)C=C4C[C@@H](O)CC[C@@]43C)[C@@H]1C[C@@H](O)[C@@H]2O [Form 3β-tetrol, androst-5-ene-3β,7β,16α,17β-tetrol] | increased | differences were not detected except between androst-5-ene-3β,7β,16α,17β-tetrol and rosiglitazone | more effective | 25-35% | concentration giving normal osteoprotegerin levels ([3]; MG-63 cells, 30 nM dexamethasone): 0.1 µM; reversal of the decrease in osteoprotegerin synthesis by MG-63 cells ([3]; in the presence of 30 nM dexamethasone): completely or partially reversed; interaction with androgen receptor [4]: does not interact; interaction with estrogen receptor-α [5]: does not interact; interaction with estrogen receptor-β [6]: does not interact
C[C@]12CC[C@H]3[C@@H]([C@@H](O)C=C4C[C@@H](O)CC[C@@]43C)[C@@H]1CC[C@@H]2O [androst-5-ene-3β,7β,17β-triol, reference compound] |  |  |  | 15-20% | 
C[C@@H]1C[C@H]2[C@@H]3CCC4=CC(=O)C=C[C@]4(C)[C@@]3(F)[C@@H](O)C[C@]2(C)[C@@]1(O)C(=O)CO [dexamethasone] |  |  |  |  | pIC50 [7]: 8.00; osteoprotegerin level [8]: 3.3 pmol/L
CN(CCOc1ccc(CC2SC(=O)NC2=O)cc1)c1ccccn1.O=C(O)/C=C\C(=O)O (stereo not drawn) [rosiglitazone, rosiglitazone maleate, reference compound] |  | differences were not detected except between androst-5-ene-3β,7β,16α,17β-tetrol and rosiglitazone | more effective |  | 
